# Laboratory results taken from PubChem BioAssay AID2060898 (Molecular Pharmacology Branch, DTP, NCI, 2025).
# Tested on: 616215-338-R-J1-PDC complex spheroid viability
# Assay: Anticancer human tumor 616215-338-R-J1-PDC patient-derived colon adenocarcinoma cell line growth inhibition [RAS]
# Conditions: for IC50: curve of first compound; for viability, T/C: stronger effect = lower value
# How it was run: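 Agents were tested in combination matrices in half-log decrements from a top concentration at or near clinical Cmax (10 microM if undetermined). Targets were multi-cell spheroids of tumour lines plus HUVEC and MSC stromal cells.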
# [1] = second compound 0.000949 µM, first compound 0.0316 µM
# [2] = second compound 0.000949 µM, first compound 0.1 µM
# [3] = second compound 0.000949 µM, first compound 0.316 µM
# [4] = second compound 0.000949 µM, first compound 1 µM
# [5] = second compound 0.000949 µM, first compound 3.16 µM
# [6] = second compound 0.000949 µM, first compound 10 µM
# [7] = second compound 0.003 µM, first compound 0.0316 µM
# [8] = second compound 0.003 µM, first compound 0.1 µM
# [9] = second compound 0.003 µM, first compound 0.316 µM
# [10] = second compound 0.003 µM, first compound 1 µM
# [11] = second compound 0.003 µM, first compound 3.16 µM
# [12] = second compound 0.003 µM, first compound 10 µM
# [13] = second compound 0.00949 µM, first compound 0.0316 µM
# [14] = second compound 0.00949 µM, first compound 0.1 µM
# [15] = second compound 0.00949 µM, first compound 0.316 µM
# [16] = second compound 0.00949 µM, first compound 1 µM
# [17] = second compound 0.00949 µM, first compound 3.16 µM
# [18] = second compound 0.00949 µM, first compound 10 µM
# [19] = second compound 0.03 µM, first compound 0.0316 µM
# [20] = second compound 0.03 µM, first compound 0.1 µM
# [21] = second compound 0.03 µM, first compound 0.316 µM
# [22] = second compound 0.03 µM, first compound 1 µM
# [23] = second compound 0.03 µM, first compound 3.16 µM
# [24] = second compound 0.03 µM, first compound 10 µM
# [25] = second compound 0.0949 µM, first compound 0.0316 µM
# [26] = second compound 0.0949 µM, first compound 0.1 µM
# [27] = second compound 0.0949 µM, first compound 0.316 µM
# [28] = second compound 0.0949 µM, first compound 1 µM
# [29] = second compound 0.0949 µM, first compound 3.16 µM
# [30] = second compound 0.0949 µM, first compound 10 µM
# [31] = second compound 0.3 µM, first compound 0.0316 µM
# [32] = second compound 0.3 µM, first compound 0.1 µM
# [33] = second compound 0.3 µM, first compound 0.316 µM
# [34] = second compound 0.3 µM, first compound 1 µM
# [35] = second compound 0.3 µM, first compound 3.16 µM
# [36] = second compound 0.3 µM, first compound 10 µM
# 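Further: spheroids exposed to agents for seven days before viability readout.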
# 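Wherever viability, T/C is given: 100% = DMSO vehicle control viability.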
smiles,measurement,setting,value
CC(=O)OC12COC1CC(O)C1(C)C(=O)C(O)C3=C(C)C(OC(=O)C(O)C(NC(=O)OC(C)(C)C)c4ccccc4)CC(O)(C(OC(=O)c4ccccc4)C21)C3(C)C (centres undefined) + CCn1c(-c2cc(N3CCN(C)CC3)cnc2C(C)OC)c2c3cc(ccc31)-c1csc(n1)CC(NC(=O)C1CC1C)C(=O)N1CCCC(N1)C(=O)OCC(C)(C)C2,IC50,second compound 0.000949 µM,< 0.0316 µM
same,IC50,second compound 0.003 µM,< 0.0316 µM
same,IC50,second compound 0.00949 µM,< 0.0316 µM
same,IC50,second compound 0.03 µM,< 0.0316 µM
same,IC50,second compound 0.0949 µM,< 0.0316 µM
same,IC50,second compound 0.3 µM,< 0.0316 µM
same,"viability, T/C",[1],27.1%
same,"viability, T/C",[2],20.3%
same,"viability, T/C",[3],18.9%
same,"viability, T/C",[4],19.9%
same,"viability, T/C",[5],20.7%
same,"viability, T/C",[6],24%
same,"viability, T/C",[7],22.3%
same,"viability, T/C",[8],18.3%
same,"viability, T/C",[9],15.9%
same,"viability, T/C",[10],19.3%
same,"viability, T/C",[11],18.8%
same,"viability, T/C",[12],24%
same,"viability, T/C",[13],18.5%
same,"viability, T/C",[14],16.4%
same,"viability, T/C",[15],13.3%
same,"viability, T/C",[16],12%
same,"viability, T/C",[17],17.2%
same,"viability, T/C",[18],18.7%
same,"viability, T/C",[19],15.6%
same,"viability, T/C",[20],13.4%
same,"viability, T/C",[21],13.1%
same,"viability, T/C",[22],13.2%
same,"viability, T/C",[23],14.5%
same,"viability, T/C",[24],16.8%
same,"viability, T/C",[25],15.4%
same,"viability, T/C",[26],12.4%
same,"viability, T/C",[27],10.8%
same,"viability, T/C",[28],13.4%
same,"viability, T/C",[29],13.5%
same,"viability, T/C",[30],14%
same,"viability, T/C",[31],14.9%
same,"viability, T/C",[32],13.3%
same,"viability, T/C",[33],10.7%
same,"viability, T/C",[34],11.9%
same,"viability, T/C",[35],13.9%
same,"viability, T/C",[36],16.3%
CCC(CC)c1cc(NC2CCC(N)C2)n2nccc2n1 (centres undefined) + CCn1c(-c2cc(N3CCN(C)CC3)cnc2C(C)OC)c2c3cc(ccc31)-c1csc(n1)CC(NC(=O)C1CC1C)C(=O)N1CCCC(N1)C(=O)OCC(C)(C)C2,IC50,second compound 0.000949 µM,1.83 µM
same,IC50,second compound 0.003 µM,1.88 µM
same,IC50,second compound 0.00949 µM,1.59 µM
same,IC50,second compound 0.03 µM,1.13 µM
same,IC50,second compound 0.0949 µM,< 0.0316 µM
same,IC50,second compound 0.3 µM,< 0.0316 µM
same,"viability, T/C",[1],122%
same,"viability, T/C",[2],113%
same,"viability, T/C",[3],95%
same,"viability, T/C",[4],105%
same,"viability, T/C",[5],0.4%
same,"viability, T/C",[6],0.24%
same,"viability, T/C",[7],109%
same,"viability, T/C",[8],108%
same,"viability, T/C",[9],116%
same,"viability, T/C",[10],110%
same,"viability, T/C",[11],0.37%
same,"viability, T/C",[12],0.22%
same,"viability, T/C",[13],80.7%
same,"viability, T/C",[14],92.2%
same,"viability, T/C",[15],72.6%
same,"viability, T/C",[16],88.4%
same,"viability, T/C",[17],0.29%
same,"viability, T/C",[18],0.22%
same,"viability, T/C",[19],50.2%
same,"viability, T/C",[20],55.3%
same,"viability, T/C",[21],56.5%
same,"viability, T/C",[22],62.5%
same,"viability, T/C",[23],0.28%
same,"viability, T/C",[24],0.2%
same,"viability, T/C",[25],41.6%
same,"viability, T/C",[26],39.9%
same,"viability, T/C",[27],51.1%
same,"viability, T/C",[28],49.3%
same,"viability, T/C",[29],0.28%
same,"viability, T/C",[30],0.23%
same,"viability, T/C",[31],30.5%
same,"viability, T/C",[32],38.5%
same,"viability, T/C",[33],45.7%
same,"viability, T/C",[34],47.9%
same,"viability, T/C",[35],0.33%
same,"viability, T/C",[36],0.27%
